According to article PMC5838563, “Compounds producing an effective combinatorial regimen for disruption of HIV‐1 latency” (EMBO Molecular Medicine, 2017):

Legend:
[1] = test system: HIV‐1 LTR (Jurkat^Tat LTR‐DsRed clone #11); assay: mdHIV LTR‐DsRed reporter assay, clone #11; type: cell-based
Source text: HIV‐1 tends to integrate into actively transcribed regions of the host genome (Jordan et al, 2003; Lewinski et al, 2006; Ikeda et al, 2007). Each HIV‐1‐infected patient carries viral DNA integrated at different chromosomal locations, and as we have previously shown, the site of viral integration influences how latently infected T cells respond to different stimuli (Hashemi et al, 2016). Therefore, an ideal LRA should be capable of disrupting latency in cell models carrying integrated viral reporters at multiple different regions within the host genome. To assess this capability for the PH compounds, we used two additional previously described cell lines, designated Jurkat^Tat LTR‐DsRed clones #11, and #131, that carry a mini‐dual fluorescent HIV‐1 LTR reporter (mdHIV) at different chromosomal locations. The minivirus mdHIV has two fluorescent reporters in which DsRed expression is driven from the 5′ LTR, and eGFP is constitutively expressed from an internal EIF‐1α promoter (Fig 5A). […]
(§1) Figure 5 Effect of PH02 on HIV provirus integrated at different chromosomal locations • A The effect of PH compounds was analyzed using clonal lines bearing single‐copy integrations of the mini‐dual fluorescent HIV‐1 LTR reporter, md‐HIV, where GFP is constitutively expressed from the EIF‐1α internal promoter, and DsRed from the 5′ LTR. • B Fluorescence‐activated cell sorting (FACS) of cells bearing md‐HIV provirus indicates expression of EIF‐1α‐GFP and LTR‐dsRed. Stimulation of the md‐HIV lines generally causes a shift of the fluorescence profile from GFP^+/DsRed^− toward GFP^+/DsRed^+. • C, D Clone 11 or clone 131 was treated with the indicated concentrations of PH02 (left panels) or PH02 in combination with 10 nM PEP005 (right panels) for 24 h and cells analyzed by flow cytometry. Results presented as Δmean fluorescence intensity (ΔMFI) of DsRed expression and fold increase in DsRed expression for solo and combination treatments, respectively. Mean and SE are determined from three biological replicates (n = 3) and technical duplicates. […]

[2] = test system: HIV‐1 LTR (Jurkat^Tat LTR‐DsRed clone #131); assay: mdHIV LTR‐DsRed reporter assay, clone #131; type: cell-based
Source text: HIV‐1 tends to integrate into actively transcribed regions of the host genome (Jordan et al, 2003; Lewinski et al, 2006; Ikeda et al, 2007). Each HIV‐1‐infected patient carries viral DNA integrated at different chromosomal locations, and as we have previously shown, the site of viral integration influences how latently infected T cells respond to different stimuli (Hashemi et al, 2016). Therefore, an ideal LRA should be capable of disrupting latency in cell models carrying integrated viral reporters at multiple different regions within the host genome. […]
as §1, with “cytometry.” for “cytometry. Results presented as Δmean fluorescence intensity (ΔMFI) of DsRed expression and fold increase in DsRed expression for solo and combination treatments, respectively. Mean and SE are determined from three biological replicates (n = 3) and technical duplicates.”

[3] = PH02 alone, 24 h, serial dilutions 28–0.2 μM
[4] = in combination with 10 nM PEP005, 24 h

CC(=O)Oc1ccccc1N(C=C1Sc2ccccc2C1=O)C(C)=O [PH02, 2‐{acetyl[(3‐oxo‐1‐benzothien‐2(3H)‐ylidene)methyl]amino}phenyl acetate]
above 1.75 μM: concentration reactivating viral transcription (LTR‐DsRed, ∆MFI) [1, 3] | PH02 concentration producing increased effects on HIV‐1 LTR transcription with PEP005 [1, 4] | concentration reactivating viral transcription (LTR‐DsRed, ∆MFI) [2, 3] | PH02 concentration producing increased effects on HIV‐1 LTR transcription with PEP005 [2, 4]
